{"source": "patent US20060160700A1", "about": "“Nadh-dependent cytochrome b5 reductase as target for herbicides” (Basf Aktiengesellschaft, priority 2002, published 2006)", "origin": "cited, not measured here", "key": {"[1]": {"test_system": "NADH-dependent cytochrome b5 reductase from various organisms", "conditions": "enzyme from various organisms; Golf et al. 1985, Tamura et al. 1983"}, "[2]": {"biological_target": "T1, NADH-dependent cytochrome b5 reductase from human erthyrocytes (Homo sapiens, UniProt P00387)", "T1 construct": "host or cells: human erythrocytes", "T1 sequence (P00387 24-301 limits assumed)": "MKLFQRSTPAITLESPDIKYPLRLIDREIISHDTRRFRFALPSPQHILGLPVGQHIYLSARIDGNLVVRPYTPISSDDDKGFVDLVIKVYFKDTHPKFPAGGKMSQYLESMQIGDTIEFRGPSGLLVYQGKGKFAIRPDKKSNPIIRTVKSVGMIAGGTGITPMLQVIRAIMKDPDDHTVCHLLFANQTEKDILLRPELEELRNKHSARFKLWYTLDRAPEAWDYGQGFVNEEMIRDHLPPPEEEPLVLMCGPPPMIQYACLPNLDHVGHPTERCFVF", "conditions": "enzyme from human erythrocytes; Palmieri et al. 1990"}, "[3]": {"biological_target": "T2, NADH-dependent cytochrome b5 reductase from rat liver microsomes (Rattus norvegicus, UniProt P20070)", "T2 construct": "host or cells: rat liver microsomes", "T2 sequence (P20070 1-301)": "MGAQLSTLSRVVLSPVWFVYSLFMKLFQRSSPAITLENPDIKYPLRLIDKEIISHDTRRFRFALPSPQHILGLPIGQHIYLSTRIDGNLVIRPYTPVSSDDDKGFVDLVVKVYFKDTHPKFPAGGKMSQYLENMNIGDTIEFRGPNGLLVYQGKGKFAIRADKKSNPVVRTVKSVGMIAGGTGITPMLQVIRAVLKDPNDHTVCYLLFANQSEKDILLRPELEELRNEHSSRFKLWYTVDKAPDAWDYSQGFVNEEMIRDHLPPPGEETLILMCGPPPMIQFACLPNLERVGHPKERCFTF", "conditions": "at a concentration of 0.5 mM, Golf et al. 1985"}}, "data": [{"smiles": "CCN(CC)CCCC(C)Nc1c2ccc(Cl)cc2nc2ccc(OC)cc12", "note": "(stereo not drawn) [mepacrin]", "values": [{"measurement": "inhibition of NADH-dependent cytochrome b5 reductase (result in words)", "setting": "[1]", "value": "capable of inhibiting"}]}, {"smiles": "CCC1(CCC(C)C)C(=O)NC(=O)NC1=O", "note": "[amytal]", "values": [{"measurement": "inhibition of NADH-dependent cytochrome b5 reductase (result in words)", "setting": "[1]", "value": "capable of inhibiting"}]}, {"smiles": "O=P(O)(O)O[C@H]1[C@H](OP(=O)(O)O)[C@@H](OP(=O)(O)O)[C@H](OP(=O)(O)O)[C@@H](OP(=O)(O)O)[C@H]1OP(=O)(O)O", "note": "[inositol hexaphosphate]", "values": [{"measurement": "concentrations that inhibit the NADH-dependent cytochrome b5 reductase", "setting": "[2]", "value": "millimolar range"}]}, {"smiles": "O=c1oc2ccccc2c(O)c1Cc1c(O)c2ccccc2oc1=O", "note": "[dicoumarol]", "values": [{"measurement": "inhibition of NADH-dependent cytochrome b5 reductase (result in words)", "setting": "[1]", "value": "capable of inhibiting"}]}, {"smiles": "O=C(CC(=O)C(F)(F)F)c1cccs1", "note": "[thenoyltrifluoroacetone]", "values": [{"measurement": "inhibition of NADH-dependent cytochrome b5 reductase", "setting": "[3]", "value": 50, "unit": "%"}]}, {"smiles": "CCN1C(=O)C=CC1=O", "note": "[N-ethylmaleimide]", "values": [{"measurement": "inhibition of NADH-dependent cytochrome b5 reductase (result in words)", "setting": "[1]", "value": "capable of inhibiting"}]}]}
